Publication PMC7845692 (Frontiers in Pharmacology, 2020)
Where two headings read alike, the source gives them in different places.

Experiments:
[1] = tested on: Feline infectious peritonitis virus; assay: anti-FIPV activity, cytopathic effect by visualization in Fcwf-4 cells; details: for EC50: Alphacoronavirus 1, read-out: Feline infectious peritonitis virus EC50 CPE/visualization
Description: (§1) The serotype II FIPV Taiwan isolate NTU156 strain, a kind gift from National Taiwan University, was propagated and titrated in Fcwf-4 cells ([Lin et al., 2009]). The EC50 for anti-FIPV activity and CC50 for cell cytotoxicity were determined as previously described ([Yang et al., 2020b]).

[2] = HCT-8 cell viability (MTS); details: human
Human coronavirus OC43 = assay: HCoV-OC43 immunofluorescent assay (IFA) against N protein in HCT-8 cells; type: cell-based; details: for EC50: read-out: Human coronavirus OC43 EC50 (IFA); for Human coronavirus OC43 Selectivity index: CC50/EC50, HCT-8 cells
[3] = cell cytotoxicity by visualization (FIPV host cells); details: cat
Description: as §1

HCoV-OC43 = HCoV-OC43 viral yield, end point dilution assay / TCID50; type: cell-based, Human coronavirus OC43
in vitro = details: human
SARS-CoV-2 = assay: microbe, parasite or virus in culture; type: cell-based; details: Severe acute respiratory syndrome coronavirus 2, Vero C1008; Vero E6 cells, 5–7 days, Figure 5B-b; read-out: SARS-CoV-2 plaque assay EC50
[4] = Betacoronavirus 1, OC43, HCT-8, 72 h
[5] = Betacoronavirus 1, OC43, HCT-8 cells, MOI 0.05, 72 h.p.i., means ± SD
[6] = HCT-8, MOI 0.05, reduction ∼2–3 orders of magnitude
[7] = at concentrations of up to 50 μM

Structure (SMILES) | EC50 [1] | Feline infectious peritonitis virus Selectivity index ([1]; CC50/EC50, Fcwf-4 cells) | EC50 (Human coronavirus OC43; [4]) | Human coronavirus OC43 Selectivity index (Human coronavirus OC43) | CC50 [3] | CC50 (in vitro) | also measured
COc1cc2c3c(c4cc(OC)c(OC)c(OC)c4c2cc1OC)CC1CCC[N+]1([O-])C3 (stereo not shown) [031p13-3] | 1.56 µM | >32.1 | 1.89 ± 0.228 µM | >5.3 | > 50 µM | – | CC50 at 72 h ([2]; HCT-8 cells): > 10 µM
C[C@]12CC[C@H](O)C[C@H]1CC[C@@H]1[C@@H]2CC[C@]2(C)[C@@H](c3ccc(=O)oc3)CC[C@]12O [Bufalin, bufalin, reference compound] | 0.019 ± 0.009 µM | 28.5 | 0.056 ± 0.004 µM | 16.1 | 0.542 ± 0.213 µM | – | CC50 at 72 h [2]: 0.9 ± 0.18 µM; concentration of maximum reduction of HCoV-OC43 viral yield (HCoV-OC43): 100 nM; maximum reduction of HCoV-OC43 viral yield (HCoV-OC43): 2–3 orders of magnitudes
C[C@]12CC[C@H](O)C[C@H]1CC[C@@H]1[C@@H]2CC[C@]2(C)[C@@H](C3=CC(=O)OC3)CC[C@]12O [Digitoxigenin, digitoxigenin] | 0.458 ± 0.018 µM | 7.8 | 0.323 ± 0.02 µM | >7.7 | 3.56 ± 0.375 µM | – | CC50 at 72 h [2]: > 2.5 µM
C[C@H]1O[C@@H](O[C@H]2[C@@H](O)C[C@H](O[C@H]3[C@@H](O)C[C@H](O[C@H]4CC[C@@]5(C)[C@H](CC[C@@H]6[C@@H]5C[C@@H](O)[C@]5(C)[C@@H](C7=CC(=O)OC7)CC[C@]65O)C4)O[C@@H]3C)O[C@@H]2C)C[C@H](O)[C@@H]1O [Digoxin, digoxin] | 0.212 ± 0.096 µM | – | – | 5.2 | 1.19 ± 0.603 µM | 1.4 ± 0.35 µM | Feline infectious peritonitis virus Selectivity index [1]: 5.6; EC50 (Human coronavirus OC43; [5]): 0.269 ± 0.045 µM
N#C[C@@]1(c2ccc3c(N)ncnn23)O[C@H](CO)[C@@H](O)[C@H]1O [GS441524, GS-441524] | – | – | 6.93 µM | >7.2 | – | – | CC50 at 72 h (in vitro): > 50 µM; EC50 (SARS-CoV-2): 0.86 ± 0.0292 µM
CO[C@H]1C[C@H](O[C@H]2CC[C@@]3(C)[C@H](CC[C@@H]4[C@@H]3CC[C@]3(C)[C@@H](C5=CC(=O)OC5)[C@@H](OC(C)=O)C[C@]43O)C2)O[C@@H](C)[C@@H]1O [Oleandrin, oleandrin] | 0.729 ± 0.244 µM | 3.9 | – | 3.8 | 2.85 ± 1.07 µM | 0.211 ± 0.062 µM | maximum reduction of HCoV-OC43 viral yield (HCoV-OC43): 2–3 orders of magnitudes; concentration of maximum reduction of HCoV-OC43 viral yield (HCoV-OC43; [6]): 30 nM; EC50 (Human coronavirus OC43; [5]): 0.056 ± 0.005 µM
C[C@@H]1O[C@@H](O[C@H]2C[C@@H](O)[C@]3(CO)[C@H]4[C@H](O)C[C@]5(C)[C@@H](C6=CC(=O)OC6)CC[C@]5(O)[C@@H]4CC[C@]3(O)C2)[C@H](O)[C@H](O)[C@H]1O [Ouabain, ouabain] | 1.56 µM | 4.0 | – | 7.1 | 6.25 ± 2.17 µM | 0.504 ± 0.011 µM | maximum reduction of HCoV-OC43 viral yield (HCoV-OC43): 2–3 orders of magnitudes; concentration of maximum reduction of HCoV-OC43 viral yield (HCoV-OC43; [6]): 10 nM; EC50 (Human coronavirus OC43; [5]): 0.071 ± 0.007 µM
COc1cc2c3c(c4cc(OC)c(OC)cc4c2cc1OC)CN1CCCCC1C3 (stereo not shown) [PQ09] | 0.017 ± 0.006 µM | 182.0 | 0.052 ± 0.006 µM | >193 | 3.09 ± 0.886 µM | – | CC50 at 72 h ([2]; HCT-8 cells): > 10 µM
CCC(CC)COC(=O)[C@H](C)N[P@](=O)(OC[C@H]1O[C@@](C#N)(c2ccc3c(N)ncnn23)[C@H](O)[C@@H]1O)Oc1ccccc1 [Remdesivir] | – | – | 0.947 ± 0.32 µM | >52.8 | – | > 50 µM | EC50 (SARS-CoV-2): 0.647 ± 0.0167 µM
CCN1CCc2c(c3cc(OC)c(OC)cc3c3cc(OC)ccc23)C1 [dbq29a] | 0.352 ± 0.077 µM | 12.3 | 0.213 ± 0.062 µM | >46.9 | 4.31 ± 1.12 µM | – | CC50 at 72 h ([2]; HCT-8 cells): > 10 µM
C[C@]12CC[C@H](O)C[C@H]1CC[C@@H]1[C@@H]2CC[C@]2(C)[C@@](O)(c3ccoc3)CC[C@]12O [rostafuroxin] | – | – | – | – | – | – | inhibitory activity against FIPV [1, 7]: did not exhibit any inhibitory activity; inhibitory activity against HCoV-OC43 (Human coronavirus OC43; [7]): did not exhibit any inhibitory activity
